Consider 1 compound from paper PMC5352362, “Molecular and functional evaluation of a novel HIF inhibitor, benzopyranyl 1,2,3-triazole compound” (Oncotarget, 2016).

Each structure is given as a SMILES string.

For one assay, the system named is secreted VEGF. In words: VEGF ELISA of A549 culture media. Format: cell-based, human. The following applies: A549 cells, 10 and 100 nM, 16 h. From the text:
As HIF-1α regulates transcription of its target genes, which are involved in angiogenesis, glucose metabolism, and metastasis in tumor progression, we determined the effects of Compound 12 on HIF-1 target gene expression at the mRNA level by semiquantitative RT-PCR. […] Thus, we checked secreted VEGF protein levels in culture media via ELISA.
Figure 5 Compound 12 suppressed HIF-1α target gene expression, and confirmation of in vitro results via determination of effects on angiogenesis in vivo (A) A549 cells were treated with Compound 12 (at concentrations of 0 nM, 1 nM, 10 nM, and 100 nM) for 16 h. The mRNA levels of HIF-1α target genes were determined by semiquantitative RT-PCR. β-actin was used as an internal control. D. DMSO vehicle control. N, normoxia; H, hypoxia. […] Media supernatant was collected, and secreted VEGF was determined by ELISA after removal of cellular debris. […] Cells that migrated through the membrane (8 μm pore size) were stained with hematoxylin and eosin, pictured as shown in upper panel, and counted (graph). *P < 0.05, **P < 0.01 versus VEGF-treated control. […] (F) Compound 12 (0.1 μg and 1 μg dosages) and retinoic acid (RA, positive control) were applied to the ED 4.5 CAM for two days, neovessel formation from the large vessels was observed, and percentages of positive angiogenic eggs (from total eggs tested) were calculated. […]
A general note: ELISA stands for enzyme-linked immunosorbent assay.

The target in a further assay is HIF-1α (Homo sapiens, UniProt Q16665). Kind of assay: Western blot of HIF-1α protein in hypoxic HEK-293 cells. The class given is cell-based. The following applies: HEK293, 1 nM, hypoxia 16 h, read-out: downregulation of HIF-1α protein expression.
HIF-1α, sequence (Q16665 whole entry): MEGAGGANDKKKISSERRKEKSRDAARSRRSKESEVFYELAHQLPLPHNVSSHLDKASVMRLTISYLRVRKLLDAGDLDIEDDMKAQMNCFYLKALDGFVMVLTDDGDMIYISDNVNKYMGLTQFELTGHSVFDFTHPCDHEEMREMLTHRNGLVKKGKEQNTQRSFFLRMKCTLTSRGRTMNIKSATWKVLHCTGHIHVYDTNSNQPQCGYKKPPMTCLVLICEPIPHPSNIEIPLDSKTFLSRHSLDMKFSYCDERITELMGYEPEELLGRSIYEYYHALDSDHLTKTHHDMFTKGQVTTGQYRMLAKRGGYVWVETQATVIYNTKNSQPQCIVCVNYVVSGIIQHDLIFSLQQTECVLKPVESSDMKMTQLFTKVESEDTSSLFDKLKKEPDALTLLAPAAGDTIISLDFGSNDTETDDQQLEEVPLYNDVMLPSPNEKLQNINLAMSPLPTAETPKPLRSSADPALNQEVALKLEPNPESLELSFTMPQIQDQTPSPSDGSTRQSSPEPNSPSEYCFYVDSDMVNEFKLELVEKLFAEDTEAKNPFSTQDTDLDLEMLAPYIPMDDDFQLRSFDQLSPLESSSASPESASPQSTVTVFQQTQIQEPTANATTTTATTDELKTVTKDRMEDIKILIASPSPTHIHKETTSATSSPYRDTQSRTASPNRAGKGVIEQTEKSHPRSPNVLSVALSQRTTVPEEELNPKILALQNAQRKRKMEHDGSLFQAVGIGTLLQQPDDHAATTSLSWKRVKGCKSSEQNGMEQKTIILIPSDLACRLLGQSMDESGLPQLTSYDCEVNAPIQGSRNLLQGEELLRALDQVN
For another assay, the system named is HUVECs. In words: Transwell cell migration assay, VEGF-induced. Format: cell-based, human. Conditions: VEGF 20 ng/mL, 24 h. As to the method: Figure 5 Compound 12 suppressed HIF-1α target gene expression, and confirmation of in vitro results via determination of effects on angiogenesis in vivo (A) A549 cells were treated with Compound 12 (at concentrations of 0 nM, 1 nM, 10 nM, and 100 nM) for 16 h. The mRNA levels of HIF-1α target genes were determined by semiquantitative RT-PCR. β-actin was used as an internal control. D. DMSO vehicle control. N, normoxia; H, hypoxia. (B) A549 cells were treated with serum-reduced culture media containing Compound 12 (at concentrations of 0 nM, 10 nM, and 100 nM) for 16 h. Media supernatant was collected, and secreted VEGF was determined by ELISA after removal of cellular debris. N, normoxia; H, hypoxia. **P < 0.01 versus hypoxia (H) DMSO (D)-treated control. (C) HUVECs were treated with Compound 12, at the indicated concentrations, in the presence of VEGF (20 ng/mL) for 24 h in 1% serum-containing media. […] Cells that migrated through the membrane (8 μm pore size) were stained with hematoxylin and eosin, pictured as shown in upper panel, and counted (graph). *P < 0.05, **P < 0.01 versus VEGF-treated control. […] (F) Compound 12 (0.1 μg and 1 μg dosages) and retinoic acid (RA, positive control) were applied to the ED 4.5 CAM for two days, neovessel formation from the large vessels was observed, and percentages of positive angiogenic eggs (from total eggs tested) were calculated. […]

Experimental for HIF-1α: (B, C) After HEK-293 cells (B) and A549 cells (C) were treated with Compound 12 (at concentrations of 0 nM, 0.1 nM, 1 nM, 10 nM, 100 nM, and 1000 nM) under hypoxic conditions for 16 h, expression of HIF-1α was determined by western blot analysis and then graphed. (D, E) Half maximal inhibitory concentration (IC50) values were calculated using GraphPad Prism software, using the quantified HIF-1α levels determined in B and C.
HEK-293 cells and A549 cells were treated with Compound 12, at 0.1–1000 nM concentrations, under hypoxic conditions for 16 h.
Proteins extracted from cells using PRO-PREP (iNtRon Biotech, South Korea) were separated by SDS-PAGE and transferred to a nitrocellulose membrane (Whatman, Maidstone, UK). Membranes were blocked with 5% skim milk in Tris-buffered saline (TBS) containing 0.1% Tween-20 for 30 min at room temperature (RT). After blocking, membranes were incubated with specific primary antibodies overnight at 4°C, followed by incubation with horseradish peroxidase-conjugated mouse- or rabbit-IgG for 1 h at RT. Antibody binding was detected using an enhanced chemiluminescence (ECL) kit (BioRad, Hercules, CA) according to the manufacturer's instructions. […]

Consider `COc1ccc(-c2cn(CC3(C)C=Cc4cc([N+](=O)[O-])ccc4O3)nn2)cc1` (stereo not drawn) [Compound 12, 4-(4-methoxyphenyl)-1-((2-methyl-6-nitro-2H-chromen-2-yl)methyl)-1H-1,2,3-triazole], for which the “hypoxia-induced VEGF secretion” value in the assay on secreted VEGF was “significantly suppressed hypoxia-induced VEGF secretion, in a dose-dependent manner”. The inhibition at 0.001 µM on HIF-1α was approximately 30%. In addition, the VEGF-induced endothelial migration entry in the assay on HUVECs is “significantly inhibited”.
